Source: ChEMBL document CHEMBL1250423, “Terpioside B, a difucosyl GSL from the marine sponge Terpios sp. is a potent inhibitor of NO release” (Bioorg Med Chem, 2010)
Calls of active or inactive are those of the source. No cut-off for these calls is given here.

Target: T1, Nitric oxide synthase, inducible (Mus musculus) (UniProt P29477)
T1 sequence (whole entry): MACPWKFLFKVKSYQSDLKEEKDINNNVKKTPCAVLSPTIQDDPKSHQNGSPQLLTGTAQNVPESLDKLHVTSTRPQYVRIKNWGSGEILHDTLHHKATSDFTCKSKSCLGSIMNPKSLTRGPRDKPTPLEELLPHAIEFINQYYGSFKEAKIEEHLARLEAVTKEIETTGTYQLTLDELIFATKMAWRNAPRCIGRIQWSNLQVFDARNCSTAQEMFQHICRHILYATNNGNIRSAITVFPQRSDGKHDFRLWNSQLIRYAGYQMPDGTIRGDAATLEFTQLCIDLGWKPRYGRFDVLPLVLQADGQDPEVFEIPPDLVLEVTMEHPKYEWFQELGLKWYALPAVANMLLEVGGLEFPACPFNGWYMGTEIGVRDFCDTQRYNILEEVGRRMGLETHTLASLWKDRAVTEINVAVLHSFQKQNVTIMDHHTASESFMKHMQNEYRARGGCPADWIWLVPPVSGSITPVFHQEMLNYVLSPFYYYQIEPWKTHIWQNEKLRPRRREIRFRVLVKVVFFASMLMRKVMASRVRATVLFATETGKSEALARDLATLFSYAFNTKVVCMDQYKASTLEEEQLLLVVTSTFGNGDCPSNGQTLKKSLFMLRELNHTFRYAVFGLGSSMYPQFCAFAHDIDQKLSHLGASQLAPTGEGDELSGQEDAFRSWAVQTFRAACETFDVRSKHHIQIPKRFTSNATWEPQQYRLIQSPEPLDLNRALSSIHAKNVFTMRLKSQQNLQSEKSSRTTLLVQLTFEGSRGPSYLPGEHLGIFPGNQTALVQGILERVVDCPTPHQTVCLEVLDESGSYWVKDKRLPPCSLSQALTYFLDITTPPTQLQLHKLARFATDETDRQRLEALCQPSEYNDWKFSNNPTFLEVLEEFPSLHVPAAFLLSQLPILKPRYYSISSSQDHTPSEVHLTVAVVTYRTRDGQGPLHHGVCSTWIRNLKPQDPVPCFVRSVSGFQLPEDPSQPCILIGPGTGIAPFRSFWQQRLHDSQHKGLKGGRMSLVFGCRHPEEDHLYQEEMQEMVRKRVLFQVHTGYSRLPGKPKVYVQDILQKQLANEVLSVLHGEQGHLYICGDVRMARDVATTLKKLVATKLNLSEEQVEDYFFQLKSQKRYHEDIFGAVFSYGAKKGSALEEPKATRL
Test: Inhibition of iNOS in mouse J774.2 cells assessed as reduction of LPS-induced nitric oxide production at 1 to 10 uM after 24 hrs by Griess reaction
Assay type: cell-based

Question: How did the inhibition turn out when `CCCCCCCCCCCCCCCCCCCCCC[C@@H](O)C(=O)N[C@@H](CO[C@@H]1O[C@H](CO)[C@@H](O)[C@H](O[C@@H]2O[C@H]([C@H](C)O)[C@@H](O)[C@@H]2O)[C@H]1O)[C@H](O)[C@H](O)CCCCCCCCCCCC(C)CC` (stereo partly specified) was run?
Answer: Active
